Results as given in patent US6825185B2, “Substituted aryl compounds as novel cyclooxygenase-2 selective inhibitors, compositions and methods of use” (NitroMed, Inc., priority 2000, dated 2004).

Key:
COX-2 = molecular target: T1, COX-2 (Homo sapiens, UniProt P35354); test: Human COX-2 enzyme activity (COX Inhibitor Screening Assay, prostaglandin EIA); format: biochemical; design: purchased Cayman Chemical; conditions: test compound at 10 μM
T1 sequence (P35354 18-604): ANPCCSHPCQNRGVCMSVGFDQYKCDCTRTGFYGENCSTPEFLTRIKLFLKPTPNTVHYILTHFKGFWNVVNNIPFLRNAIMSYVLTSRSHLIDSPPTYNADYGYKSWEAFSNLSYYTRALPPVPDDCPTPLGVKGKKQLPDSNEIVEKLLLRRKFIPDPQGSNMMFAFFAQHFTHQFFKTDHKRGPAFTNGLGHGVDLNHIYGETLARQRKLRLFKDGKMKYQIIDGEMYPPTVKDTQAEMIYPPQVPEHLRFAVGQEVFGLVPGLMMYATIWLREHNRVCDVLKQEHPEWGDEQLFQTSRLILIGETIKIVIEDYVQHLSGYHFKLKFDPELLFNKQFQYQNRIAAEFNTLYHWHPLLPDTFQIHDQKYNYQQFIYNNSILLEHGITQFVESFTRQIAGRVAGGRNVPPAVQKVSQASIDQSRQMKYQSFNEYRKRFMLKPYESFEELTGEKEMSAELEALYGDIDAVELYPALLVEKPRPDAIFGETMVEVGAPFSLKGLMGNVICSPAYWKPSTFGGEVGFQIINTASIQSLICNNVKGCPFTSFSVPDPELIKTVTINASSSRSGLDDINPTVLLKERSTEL
Method: The human COX-1 and COX-2 enzyme activities and the measurement of the prostaglandin products synthesized were performed using the COX Inhibitor Screening Assay (Cayman Chemical, Ann Arbor, Mich.), which also contained the Prostaglandin Screening EIA Kit, used for prostaglandin quantification). The test compounds were dissolved at 50 times the highest final reaction concentration in DMSO or any other suitable solvent as stock solutions. These stock solutions were then diluted in the same solvent. Eight glass test tubes (13×100 mm) were placed in a 25° C. water bath. To each test tube was added 950 μL of reaction buffer (0.1 M Tris-HCl, pH 8.0, containing 5 mM EDTA, and 2 mM phenol), 10 μL of 100 µM heme solution, and 10 μL (5 units) of either human COX-1 or COX-2 enzyme and the resulting mixture was incubated for 2 minutes. Twenty μL of the solvent was added to one tube (100% initial activity or solvent control) and 20 μL of each dilution of the test compound was added to one tube each. Each tube was vortexed immediately after the addition. The enzyme was incubated with the inhibitor for 20 minutes at 25° C. The enzymatic reaction was then initiated by the addition of 10 μL of freshly prepared 10 mM arachidonic acid (neutralized with KOH), vortexed and then incubated for 2 minutes (or, in some cases as indicated, 30 seconds) at 37° C. The reaction was terminated by the addition of 50 μL of 1 M HCl, vortexed and placed at room temperature. One hundred μL of a saturated stannous chloride solution (50 mg/mL of 0.1 M HCl) was added and the reaction mixture was allowed to stand at room temperature for at least 5 minutes.
The prostaglandins (PG) produced in the reactions were assayed, after a 2,000-fold dilution, using the Prostaglandin Screening EIA Kit (Cayman Chemical, Ann Arbor, Mich.). The assay contains an antibody with broad specificity for all the prostaglandin families (PGF, PGE, PGD, and thromboxane B-type) synthesized in the COX-1/COX-2 reactions. The synthesized prostaglandin competes with a PG-tagged acetylcholine esterase tracer for binding to the PG antibody. Binding of synthesized PG lowers the colorimetric development of the Ellman's Reagent (computed as %B/B0). The actual amount of synthesized PG was interpolated from a standard curve using known amounts of supplied prostaglandin E2 (PGE2) (PGE2 concentration vs. %B/B0). The data generated were the mean±standard deviation of triplicate wells in the EIA for a single reaction at a given inhibitor concentration.

COX-1 = COX-1 (Homo sapiens, UniProt P23219); test: COX-1 enzyme activity in human whole blood (A23187 stimulated, thromboxane B2 EIA); format: cell-based; design: Human blood (≈50 mL) from male or female donors who had not received any aspirin or NSAIDs for 14 days; endogenous in cells; host or cells: human whole blood from donors; conditions: test compound at 100 μM
Chain of COX-1 (P23219 24-599): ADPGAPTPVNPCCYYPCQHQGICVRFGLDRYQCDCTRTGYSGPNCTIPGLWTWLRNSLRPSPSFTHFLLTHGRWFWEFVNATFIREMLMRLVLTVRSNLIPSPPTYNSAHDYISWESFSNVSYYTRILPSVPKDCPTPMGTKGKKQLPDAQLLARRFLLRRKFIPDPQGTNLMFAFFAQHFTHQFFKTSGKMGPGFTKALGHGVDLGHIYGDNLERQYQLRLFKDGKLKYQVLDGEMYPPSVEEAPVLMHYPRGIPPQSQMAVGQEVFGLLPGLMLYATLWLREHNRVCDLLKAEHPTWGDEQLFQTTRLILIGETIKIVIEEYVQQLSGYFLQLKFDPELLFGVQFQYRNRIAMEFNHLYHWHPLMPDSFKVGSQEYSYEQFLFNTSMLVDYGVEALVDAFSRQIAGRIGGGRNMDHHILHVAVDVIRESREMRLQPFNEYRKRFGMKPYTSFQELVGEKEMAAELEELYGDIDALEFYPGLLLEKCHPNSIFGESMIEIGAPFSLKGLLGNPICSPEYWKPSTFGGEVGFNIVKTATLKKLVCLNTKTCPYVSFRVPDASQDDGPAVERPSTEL

Compound	COX-2 Inhibition (% at 10 μM) (COX-2) [%]	COX-1 Inhibition (% at 100 μM) (COX-1) [%]
CS(=O)(=O)c1ccc(-c2cc3c(cc2CC2CCCCC2)OCO3)cc1 [Example 1e, 1-(6-(Cyclohexylmethyl)(2-H-benzo(3,4-d)1,3-dioxolen-5-yl))-4-(methylsulfonyl) benzene]	100	40
CS(=O)(=O)c1ccc(-c2cc3c(cc2C(=O)c2ccccc2)OCO3)cc1 [Example 3d, 6-(4-(Methylsulfonyl)phenyl)(2H-benzo(d)1,3-dioxolan-5-yl) phenyl ketone]	90	75
CS(=O)(=O)c1ccc(-c2cc3c(cc2Cc2cccnc2)OCO3)cc1 [Example 6c, 4-(Methylsulfonyl)-1-(6-(3-pyridylmethyl)(2H-benzo(3,4-d)1,3-dioxolan-5-yl))benzene]	65	20
CS(=O)(=O)c1ccc(-c2cc3c(cc2CN2CCCCC2=O)OCO3)cc1 [Example 9c]	90	35
CS(=O)(=O)c1ccc(-c2cc3c(cc2C=C2CCCC2)OCO3)cc1 [Example 10a, 4-(6-(Cyclopentylidenemethyl)(2H-benzo(3,4-d)1,3-dioxolan-5-yl))-1-(methylsulfonyl)benzene]	100	70
CS(=O)(=O)c1ccc(-c2cc3c(cc2Cc2cc(F)cc(F)c2)OCO3)cc1 [Example 15c, 5-(1-(3′,5′-Difluorophenyl)methyl)-1,2-methylenedioxy-4-(4-methylsulfonylphenyl)benzene]	90	75
